Reference: patent publication US20240316215A1, “CONTROLLED DRUG RELEASE MATERIAL” (ADURO MATERIAL AB, priority 2021, published 2024)

How the values were obtained:
breast cancer cell lines = conditions: read-out: EC50 previously reported; cited from earlier work
[1] = tested on: MCF-7 human breast cancer cells; test: cells
Source text: Cell viability studies are typically conducted on cells that are actively dividing, in the linear range of logarithmic division. However, tumors are typically dense, highly populated 3-dimensional cultures.

## NC(=O)NO [hydroxyurea]
Breast cancer cell lines
  EC50: ~200 µM
[1]; MCF7, MCF-7 cells cultured at 1×10^4/well
  EC50: 200 µM
[1]; MCF7, MCF-7 cells cultured at 2×10^4/well
  EC50: 400 µM
[1]; MCF7, MCF-7 cells cultured at 4×10^4/well
  EC50: 800 µM
[1]; MCF7, lowest cell concentration, 1×10^4 cells/well
  EC50: 200 µM
